Test results from patent US8609836B2, “4-aryl-2-anilino-pyrimidines” (Janssen Pharmaceutica NV, priority 2008, dated 2013).

Legend:
PLK3 (h) = PLK3 (h) (Homo sapiens, UniProt Q9H4B4); assay: PLK3 human kinase inhibition, SPA; assay type: biochemical; details: read-out: PLK3 pIC50 (converted)
Protocol: (§1) The in vitro inhibition of a panel of kinases was assessed using either the scintillation proximity assay (SPA) as described by Cook, N. D. et al., Advances in Experimental Medicine and Biology (1991), 36; p. 525-528.
(§2) In the SPA technology the activity of the kinase of interest is measured using an appropriate biotinylated substrate that is incubated with the aforementioned kinase protein in the presence of (^33P) radiolabeled ATP. (^33P) Phosphorylation of the substrate is subsequently measured through binding of the phosphorylated substrate to streptavidine coated beads that are based on the scintillant poly(vinyl toluene) (PVT-Beads). The scintillation intensity is detected by imaging on Leadseeker.
(§3) All kinases are pre-diluted to a 10× working concentration prior to addition into the assay. The composition of the dilution buffer for each kinase is detailed below.
(§4) In a final reaction volume of 30 μl, PLK3 (h) (30 μg/ml) is incubated with 50 mM Hepes pH 8.0, 2 mM MnCl2, 1 mM DTT, 2 μM of peptide Biotin-Tds linker-[…], 0.1 μM ATP and 2 nM [γ-^33P-ATP] (6.0 μCi/ml). After incubation of 20 minutes at room temperature, the reaction is stopped by addition of 40 μL of stop solution containing 8.7 mM EDTA, BSA 0.17%, 0.17% Triton X-100, 25 mg/ml SPA beads (GE-healthcare). The plate is centrifuged and read for Scintillation imaging on Leadseeker.

AuroraB (h) = AuroraB (h) (Homo sapiens, UniProt Q96GD4); assay: Aurora-B human kinase inhibition, SPA; assay type: biochemical; details: read-out: AuroraB pIC50 (converted)
Chain of AuroraB (h) (Q96GD4 whole entry): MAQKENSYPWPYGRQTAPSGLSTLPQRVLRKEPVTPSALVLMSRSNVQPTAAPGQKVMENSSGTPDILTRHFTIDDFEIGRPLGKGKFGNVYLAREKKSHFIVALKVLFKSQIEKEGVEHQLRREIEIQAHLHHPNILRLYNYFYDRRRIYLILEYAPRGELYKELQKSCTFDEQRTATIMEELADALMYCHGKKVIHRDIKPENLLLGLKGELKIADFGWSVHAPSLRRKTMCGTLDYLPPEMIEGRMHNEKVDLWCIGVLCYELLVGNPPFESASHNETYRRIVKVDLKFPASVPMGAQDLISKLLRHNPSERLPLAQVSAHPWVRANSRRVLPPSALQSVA
Protocol: as §1, §2, §3
In a final reaction volume of 30 μl, AuroraB (h) (0.5 μg/ml) is incubated with 60 mM Hepes pH 7.5, 3 mM MgCl2, 3 mM MnCl2, 3 μM Na3VO4, 0.05 mg/ml PEG, 2 mM DTT, 3 μM Biotin-[…]-OH, 0.5 μM ATP and 2.2 nM [γ-^33P-ATP] (6.8 μCi/ml). After incubation of 60 minutes at room temperature, the reaction is stopped by addition of 40 μL of stop solution containing 8.7 mM EDTA, BSA 0.17%, 0.17% Triton X-100, 5 mg/ml SPA beads (GE-healthcare). The plate is centrifuged and read for Scintillation imaging on Leadseeker.

GSK3β (h) = GSK3β (h) (Homo sapiens, UniProt P49841); assay: GSK-3β human kinase inhibition, SPA; assay type: biochemical; details: read-out: GSK3b pIC50 (converted)
Chain of GSK3β (h) (P49841 whole entry): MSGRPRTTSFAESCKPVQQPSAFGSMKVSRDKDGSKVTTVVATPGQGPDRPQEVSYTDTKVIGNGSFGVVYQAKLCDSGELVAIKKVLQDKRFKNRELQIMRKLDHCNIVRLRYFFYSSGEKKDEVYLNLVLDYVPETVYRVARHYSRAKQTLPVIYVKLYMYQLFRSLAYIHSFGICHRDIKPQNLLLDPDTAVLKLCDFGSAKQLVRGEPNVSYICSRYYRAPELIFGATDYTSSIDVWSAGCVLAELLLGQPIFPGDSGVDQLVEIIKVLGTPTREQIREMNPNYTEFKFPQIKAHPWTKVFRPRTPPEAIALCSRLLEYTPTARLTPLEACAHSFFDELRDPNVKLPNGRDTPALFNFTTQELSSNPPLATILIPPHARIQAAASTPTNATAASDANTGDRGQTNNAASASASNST
Protocol: as §1, §2, §3
In a final reaction volume of 30 μl, GSK3β (h) (1 μg/ml) is incubated with 25 mM Tris pH 7.4, 10 mM MgCl2, 1 mM DTT, 1 μM peptide Biotin-[…]-OH, 1 μM ATP and 2 nM [γ-^33P-ATP] (6.0 μCi/ml). After incubation of 60 minutes at room temperature, the reaction is stopped by addition of 40 μL of stop solution containing 8.7 mM EDTA, BSA 0.17%, 0.17% Triton X-100, 6.25 mg/ml SPA beads (GE-healthcare). The plate is centrifuged and read for Scintillation imaging on Leadseeker.

A2780 = assay: Cellular proliferation assay (Alamar blue), A2780; assay type: cell-based; details: Homo sapiens, 10% FCS, 72 hours with compound, Alamar blue 24 h, read-out: A2780 (cellular proliferation assay, Table 4) (converted)
Protocol: (§5) […] functional properties of these compounds were tested in cellular proliferation assays on a panel of different cell lines in the presence of 10% FCS serum (37° C. and 5% (v/v) CO2). In a first step these cells were seeded and incubated for 24 hours in the absence of compound. In the second step the cells were incubated for 72 hours with the compounds to be tested for 72 hours. The viable cell number was finally assessed in a standard Alamar blue cell viability assay.
(§6) The viable cell number was assessed by incubation for either 4 h (HCT-116, H1299) 6 h (U87-MG) or 24 h (A2780, MDA-MB-231) with Alamar blue (Resazurin 9 μg/ml, K-Ferrocyanide 90 μM, K-Ferricyanide 90 μM) and the converted fluorescent product was quantified on a fluorescent plate reader (544 nm/590 nm). Effect of the compounds is calculated as of on control cells.

MDA-MB-231 = assay: Cellular proliferation assay (Alamar blue), MDA-MB-231; assay type: cell-based; details: Homo sapiens, 10% FCS, 72 hours with compound, Alamar blue 24 h, read-out: MDA/MB231 (cellular proliferation assay, Table 4) (converted)
Protocol: as §5, §6

PLK1 T210D (h) = PLK1 T210D (h) (Homo sapiens, UniProt P53350, T210D); assay: PLK1 human kinase inhibition, SPA; assay type: biochemical; details: read-out: PLK1 pIC50 (converted)
Chain of PLK1 T210D (h) (P53350 whole entry T210D): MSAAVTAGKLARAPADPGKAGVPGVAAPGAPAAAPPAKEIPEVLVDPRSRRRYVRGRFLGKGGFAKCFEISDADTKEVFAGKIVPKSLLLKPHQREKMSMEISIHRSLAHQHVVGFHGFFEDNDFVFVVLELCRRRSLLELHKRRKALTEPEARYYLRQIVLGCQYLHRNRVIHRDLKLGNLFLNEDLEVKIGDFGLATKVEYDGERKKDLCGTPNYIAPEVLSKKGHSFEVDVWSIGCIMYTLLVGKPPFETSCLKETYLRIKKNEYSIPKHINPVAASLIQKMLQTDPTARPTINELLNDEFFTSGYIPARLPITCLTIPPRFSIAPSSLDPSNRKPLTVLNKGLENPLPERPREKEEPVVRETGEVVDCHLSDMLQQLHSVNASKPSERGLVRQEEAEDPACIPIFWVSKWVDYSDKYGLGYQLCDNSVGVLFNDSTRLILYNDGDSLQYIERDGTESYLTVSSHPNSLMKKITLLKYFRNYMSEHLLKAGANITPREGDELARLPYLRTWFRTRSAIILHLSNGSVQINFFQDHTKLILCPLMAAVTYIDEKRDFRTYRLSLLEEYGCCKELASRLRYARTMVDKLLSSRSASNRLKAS
Protocol: as §1, §2, §3
as §4, with “PLK1 T210D” for “PLK3”, “(0.125 ng/ml)” for “(30 μg/ml)”, “40” for “20”

U87-MG = assay: Cellular proliferation assay (Alamar blue), U87-MG; assay type: cell-based; details: Homo sapiens, U-87 MG; 10% FCS; 72 hours with compound; Alamar blue 6 h; read-out: U87-MG (cellular proliferation assay, Table 4) (converted)
Protocol: as §5, §6

PLK4 (h) = PLK4 (h) (Homo sapiens, UniProt O00444); assay: PLK-4 human kinase inhibition, scintillation proximity assay (SPA); assay type: biochemical; details: read-out: PLK4 pIC50 (converted)
Chain of PLK4 (h) (O00444 whole entry): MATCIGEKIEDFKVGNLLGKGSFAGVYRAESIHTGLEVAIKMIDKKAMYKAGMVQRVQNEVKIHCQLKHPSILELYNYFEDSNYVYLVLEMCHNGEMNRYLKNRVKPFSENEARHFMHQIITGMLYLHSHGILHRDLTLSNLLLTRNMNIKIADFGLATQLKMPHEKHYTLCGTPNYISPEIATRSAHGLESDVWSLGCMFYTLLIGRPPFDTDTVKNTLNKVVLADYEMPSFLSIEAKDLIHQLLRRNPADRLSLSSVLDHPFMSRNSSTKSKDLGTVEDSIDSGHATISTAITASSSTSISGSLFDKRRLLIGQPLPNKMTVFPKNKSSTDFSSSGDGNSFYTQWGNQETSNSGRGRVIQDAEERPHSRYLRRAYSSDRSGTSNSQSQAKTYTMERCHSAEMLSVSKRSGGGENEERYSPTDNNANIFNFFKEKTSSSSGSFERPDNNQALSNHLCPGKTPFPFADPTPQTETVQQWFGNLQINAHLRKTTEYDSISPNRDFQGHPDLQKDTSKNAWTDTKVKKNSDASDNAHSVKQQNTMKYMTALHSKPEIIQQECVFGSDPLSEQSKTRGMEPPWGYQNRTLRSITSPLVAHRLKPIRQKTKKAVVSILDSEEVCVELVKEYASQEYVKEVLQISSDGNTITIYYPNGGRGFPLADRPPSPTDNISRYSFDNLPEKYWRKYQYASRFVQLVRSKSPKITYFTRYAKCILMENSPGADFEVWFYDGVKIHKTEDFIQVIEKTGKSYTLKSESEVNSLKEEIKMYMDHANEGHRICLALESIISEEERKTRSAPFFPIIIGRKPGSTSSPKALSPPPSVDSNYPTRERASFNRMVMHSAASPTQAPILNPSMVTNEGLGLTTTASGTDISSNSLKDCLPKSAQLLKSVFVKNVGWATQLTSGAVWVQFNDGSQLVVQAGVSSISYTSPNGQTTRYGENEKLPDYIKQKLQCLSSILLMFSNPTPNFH
Protocol: as §2, §3
(6.0 μCi/ml). After incubation of 60 minutes at room temperature, the reaction is stopped by addition of 40 μL of stop solution containing 8.7 mM EDTA, BSA 0.17%, 0.17% Triton X-100, 1.7 mg/ml SPA beads (GE-healthcare). The plate is centrifuged and read for Scintillation imaging on Leadseeker.

H1299 = assay: Cellular proliferation assay (Alamar blue), H1299; assay type: cell-based; details: Homo sapiens, NCI-H1299; 10% FCS; 72 hours with compound; Alamar blue 4 h
Protocol: as §5, §6

HCT-116 = assay: Cellular proliferation assay (Alamar blue), HCT-116; assay type: cell-based; details: Homo sapiens, 10% FCS, 72 hours with compound, Alamar blue 4 h
Protocol: as §5, §6

CDK1/CyclinB (h) = CDK1/CyclinB (h) (Homo sapiens, UniProt P06493); assay: CDK1/CyclinB human kinase inhibition, Invitrogen's FRET assay (Z'lyte); assay type: biochemical; details: read-out: CDK1 pIC50 (converted)
Chain of CDK1/CyclinB (h) (P06493 whole entry): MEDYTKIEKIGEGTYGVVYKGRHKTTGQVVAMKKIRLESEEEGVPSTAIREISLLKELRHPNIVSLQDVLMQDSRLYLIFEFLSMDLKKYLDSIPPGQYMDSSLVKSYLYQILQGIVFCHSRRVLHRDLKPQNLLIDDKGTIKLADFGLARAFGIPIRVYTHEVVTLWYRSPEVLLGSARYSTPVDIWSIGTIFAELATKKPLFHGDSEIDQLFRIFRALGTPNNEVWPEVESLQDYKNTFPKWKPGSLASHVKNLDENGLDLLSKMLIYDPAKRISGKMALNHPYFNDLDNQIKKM
Chain of CDK1/CyclinB (h) (P14635 whole entry partner): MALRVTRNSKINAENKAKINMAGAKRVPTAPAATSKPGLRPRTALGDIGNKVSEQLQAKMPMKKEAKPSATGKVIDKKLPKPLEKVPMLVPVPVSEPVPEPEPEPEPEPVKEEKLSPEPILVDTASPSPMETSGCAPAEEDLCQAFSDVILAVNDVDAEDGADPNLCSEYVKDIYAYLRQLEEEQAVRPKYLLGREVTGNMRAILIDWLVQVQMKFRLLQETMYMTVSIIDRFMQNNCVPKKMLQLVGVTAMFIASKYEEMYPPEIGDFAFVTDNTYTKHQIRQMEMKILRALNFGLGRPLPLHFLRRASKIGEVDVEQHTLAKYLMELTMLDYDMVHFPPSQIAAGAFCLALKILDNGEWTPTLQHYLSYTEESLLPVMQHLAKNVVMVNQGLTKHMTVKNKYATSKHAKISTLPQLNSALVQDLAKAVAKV
Protocol: as §1, §3
In a final reaction volume of 10 μl, CDK1/CyclinB (h) (0.2 μg/ml) is incubated with 50 mM Hepes pH 7.5, 10 mM MgCl2, 1 mM EGTA, 0.01% Brij-35, 2 μM Z'lyte Ser/Thr peptide 12 and 10 μM ATP (Invitrogen's FRET assay). After incubation of 60 minutes at room temperature, the reaction is stopped by addition of 5 μL development reagent containing protease mix. After 60 minutes room temperature the development reaction is stopped by adding 5 μl stop solution. The plate is then read in fluorescence plate reader with excitation: 390 nm and dual emission: 460 and 538 nm. Emission ratio is determined to the formula=Emission signal intensity at 460 nm/Emission signal intensity at 538 nm.

PLK2 (h) = PLK2 (h) (Homo sapiens, UniProt Q9NYY3); assay: PLK2 human kinase inhibition, SPA; assay type: biochemical; details: read-out: PLK2 pIC50 (converted)
Chain of PLK2 (h) (Q9NYY3 whole entry): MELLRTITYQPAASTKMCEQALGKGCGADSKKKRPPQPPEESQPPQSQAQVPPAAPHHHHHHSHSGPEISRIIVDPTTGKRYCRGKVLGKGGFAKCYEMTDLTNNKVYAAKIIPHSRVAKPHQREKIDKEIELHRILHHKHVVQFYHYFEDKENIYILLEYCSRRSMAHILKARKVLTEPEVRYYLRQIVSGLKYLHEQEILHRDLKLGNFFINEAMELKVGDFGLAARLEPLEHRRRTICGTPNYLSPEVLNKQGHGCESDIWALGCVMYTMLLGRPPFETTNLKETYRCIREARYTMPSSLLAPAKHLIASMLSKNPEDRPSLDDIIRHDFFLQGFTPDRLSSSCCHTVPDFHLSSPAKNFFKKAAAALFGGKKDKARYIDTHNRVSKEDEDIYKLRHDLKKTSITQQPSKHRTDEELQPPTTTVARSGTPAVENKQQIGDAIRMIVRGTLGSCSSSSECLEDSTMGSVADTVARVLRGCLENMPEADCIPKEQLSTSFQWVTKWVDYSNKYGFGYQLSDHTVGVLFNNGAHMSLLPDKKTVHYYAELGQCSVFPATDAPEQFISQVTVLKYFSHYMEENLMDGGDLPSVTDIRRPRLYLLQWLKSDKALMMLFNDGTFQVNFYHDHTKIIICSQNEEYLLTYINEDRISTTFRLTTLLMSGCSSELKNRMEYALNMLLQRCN
Protocol: as §1, §2, §3
as §4, with “PLK2” for “PLK3”

Chain of PLK3 (h) (Q9H4B4 whole entry): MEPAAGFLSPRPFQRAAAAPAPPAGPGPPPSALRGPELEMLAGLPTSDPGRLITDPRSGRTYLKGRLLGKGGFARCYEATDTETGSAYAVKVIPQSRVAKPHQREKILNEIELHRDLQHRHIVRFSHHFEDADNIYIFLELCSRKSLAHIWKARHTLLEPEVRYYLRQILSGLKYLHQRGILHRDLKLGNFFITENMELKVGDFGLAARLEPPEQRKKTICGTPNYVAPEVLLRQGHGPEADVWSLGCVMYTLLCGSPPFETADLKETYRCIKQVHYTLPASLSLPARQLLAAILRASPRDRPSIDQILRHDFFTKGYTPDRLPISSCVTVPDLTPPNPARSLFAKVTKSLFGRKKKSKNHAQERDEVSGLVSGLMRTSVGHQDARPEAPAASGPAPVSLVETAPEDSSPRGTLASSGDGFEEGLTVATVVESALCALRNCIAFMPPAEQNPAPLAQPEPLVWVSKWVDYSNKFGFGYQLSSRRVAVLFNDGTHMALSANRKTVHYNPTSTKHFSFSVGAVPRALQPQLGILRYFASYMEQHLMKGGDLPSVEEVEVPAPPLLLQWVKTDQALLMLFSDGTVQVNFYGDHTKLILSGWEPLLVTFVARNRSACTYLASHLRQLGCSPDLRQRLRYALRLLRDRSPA

| SMILES | IC50 (PLK3 (h)) [µM] | IC50 (AuroraB (h)) [µM] | IC50 (GSK3β (h)) [µM] | IC50 (A2780) [µM] | IC50 (MDA-MB-231) [µM] | IC50 (PLK1 T210D (h)) [µM] | IC50 (U87-MG) [µM] | IC50 (PLK4 (h)) [µM] | IC50 (H1299) [µM] | IC50 (HCT-116) [µM] | IC50 (CDK1/CyclinB (h)) [µM] | IC50 (PLK2 (h)) [µM] |
| --- | --- | --- | --- | --- | --- | --- | --- | --- | --- | --- | --- | --- |
| CC(C)Nc1cc2cc(c1)Nc1nccc(n1)-c1ccc(cc1)CN(C)CCCNC(=O)[C@H](CO)NC2 [Compound 111] | > 10 | > 10 | > 10 | > 10 | > 10 | > 10 | > 10 | 0.813 | > 10 | > 10 | > 10 | > 3.02 |
| O=C1NCCNCc2ccc(cc2)-c2ccnc(n2)Nc2ccc(N3CCOCC3)c(c2)CN[C@H]1Cc1ccccc1 [Compound 117] | > 10 | > 10 | 1 | 6.03 | > 10 | > 10 | 3.89 | 2.24 | 7.59 | 4.27 | > 10 | > 10 |
| O=C1NCc2cccc(c2)-c2ccnc(n2)Nc2cc(ccc2Cl)CN2CCC1CC2 [Compound 123] | > 10 | > 10 | 2.75 | > 10 | > 10 | > 10 | > 10 | 8.13 | > 10 | > 10 | 1.91 | > 10 |
| CC(C)Nc1cc2cc(c1)Nc1nccc(n1)-c1ccc(cc1)CN(C)CCNC(=O)CN1CCN(CC1)C2 [Compound 128] | > 10 | > 10 | 1.95 | > 10 | > 10 | > 10 | 7.94 | 1.02 | > 10 | > 10 | 1.38 | > 10 |
| CN1CCNC(=O)CN2CCN(CC2)Cc2cc(Br)cc(c2)Nc2nccc(n2)-c2ccc(cc2)C1 [Compound 129] | > 3.02 | > 10 | 0.49 | > 10 | > 10 | > 10 | 4.9 | 1.12 | > 10 | 8.51 | 4.17 | > 10 |
| O=C1CN2CCN(CC2)Cc2cc(ccc2N2CCOCC2)Nc2nccc(n2)-c2ccc(cc2)CNCCCN1 [Compound 139] | > 10 | > 10 | > 10 | 7.41 | > 10 | > 10 | 2.09 | 2.19 | > 10 | 7.41 | > 10 | > 10 |
| COc1cc2cc(c1OC)CNC(=O)[C@@H]1CCCN1Cc1cccc(c1)-c1ccnc(n1)N2 [Compound 150] | > 10 | > 10 | 0.1 | > 10 | > 10 | > 10 | > 10 | 0.832 | > 10 | 4.27 | 5.89 | > 10 |

More lines, now with the values ahead:

| IC50 (PLK3 (h)) [µM] | IC50 (AuroraB (h)) [µM] | IC50 (GSK3β (h)) [µM] | IC50 (A2780) [µM] | IC50 (MDA-MB-231) [µM] | IC50 (PLK1 T210D (h)) [µM] | IC50 (U87-MG) [µM] | IC50 (PLK4 (h)) [µM] | IC50 (H1299) [µM] | IC50 (HCT-116) [µM] | IC50 (CDK1/CyclinB (h)) [µM] | IC50 (PLK2 (h)) [µM] | SMILES |
| --- | --- | --- | --- | --- | --- | --- | --- | --- | --- | --- | --- | --- |
| > 10 | 3.31 | 3.89 | > 10 | > 10 | > 10 | > 10 | 0.912 | > 10 | > 10 | > 10 | > 10 | COc1ccc2cc1CN(C)CCCNC(=O)[C@H](CO)NCc1cc(Br)cc(c1)Nc1nccc-2n1 [Compound 112] |
| > 10 | > 10 | > 10 | > 10 | > 10 | > 10 | 5.75 | 1.48 | > 10 | 4.07 | > 10 | > 10 | COc1ccc2cc1CN(C)CCNC(=O)[C@H](C)NCc1cc(ccc1N1CCOCC1)Nc1nccc-2n1 [Compound 116] |
| > 10 | > 10 | > 10 | > 10 | > 10 | > 10 | > 10 | 7.08 | > 10 | > 10 | > 10 | > 10 | COc1ccc2cc1CN(C)CCNC(=O)[C@H](CO)NCc1cccc(c1)Nc1nccc-2n1 [Compound 120] |
| > 10 | > 10 | 6.76 | 2.34 | > 10 | > 10 | 1.7 | 1.82 | 3.02 | 0.355 | > 10 | > 10 | CN1CCCNC(=O)CN2CCN(CC2)Cc2cc(cc(N3CCOCC3)c2)Nc2nccc(n2)-c2ccc(cc2)C1 [Compound 136] |
